Reference: US11596639B2, “Substituted indole Mcl-1 inhibitors” (Vanderbilt University, priority 2016, dated 2023)

Each compound was assayed on H929 human cancer cell lines (assay: Cellular viability / proliferation (Cell TiterGlo, 72 h)). Conditions: read-out: GI50 on cellular proliferation of H929 human cancer cell lines; H929 cells, 72 h, Cell TiterGlo, 10% FBS.
Type: cell-based
Description: Cellular Viability of Human Tumor Cell Lines
To evaluate compound effect on cellular proliferation, cells were plated at 1,000 cells/well in 96-well tissue culture plates in a total volume of 90 μL medium supplemented with 10% FBS (Sigma, Saint Louis, Mo.). 24 hours later, 10 μL of compound (in a 2-fold serial dilution) is added to the cells for a top concentration of 50 μM and a final DMSO concentration <1%. After 72 hours, 50 μL of Cell TiterGlo (Promega, Madison, Wis., USA) reagent is added to each well and plates are incubated at room temperature, in the dark, for 30 minutes. Luminescence is measured on a BioTek Cytation 3. Luminescence values are imported into a template in XLFit (Guildford, Surrey, UK) that uses a four-parameter fit to generate an IC50 value for each compound dilution series on the plate.

SMILES	GI50 [nM]
Cc1cc(OCCCc2c3n(c4c(-c5c(C)nn(C)c5C)c(Cl)ccc24)CCCN(c2cc(C(=O)O)c4ccn(C)c4c2)C3=O)cc(C)c1Cl (single isomer, unassigned) [Example 440, 6-(8-chloro-11-(3-(4-chloro-3,5-dimethylphenoxy)propyl)-1-oxo-7-(1,3,5-trimethyl-1H-pyrazol-4-yl)-4,5-dihydro-1H-[1,4]diazepino[1,2-a]indol-2(3H)-yl)-1-methyl-1H-indole-4-carboxylic acid]	4500

Each compound was assayed against Mcl-1 (Homo sapiens (Human), UniProt Q07820) (assay: Fluorescence polarization anisotropy (FPA) competition assay, FITC-Bak or FITC-Bim BH3 peptide). Conditions: read-out: Ki for Inhibition of Mcl-1 by FPA assay.
Type: binding

Sequence of Mcl-1 (Q07820 172-327): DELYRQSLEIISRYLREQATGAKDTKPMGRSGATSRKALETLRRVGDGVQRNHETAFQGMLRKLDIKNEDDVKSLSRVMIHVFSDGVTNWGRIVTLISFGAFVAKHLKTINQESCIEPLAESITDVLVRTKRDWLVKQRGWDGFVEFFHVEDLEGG

SMILES	Ki [nM]
Cc1cc(OCCCc2c3n(c4c(-c5c(C)nn(C)c5C)c(Cl)ccc24)[C@H](C)CN(c2cccc4c2cc(C(=O)O)n4CCN2CCCC2)C3=O)cc(C)c1Cl [Example 369, (R)-4-(7-Chloro-10-(3-(4-chloro-3,5-dimethylphenoxy)propyl)-4-methyl-1-oxo-6-(1,3,5-trimethyl-1H-pyrazol-4-yl)-3,4-dihydropyrazino[1,2-a]indol-2(1H)-yl)-1-(2-(pyrrolidin-1-yl)ethyl)-1H-indole-2-carboxylic acid]	3.2
COc1ccc(N2C[C@@H](C)n3c(c(CCCOc4cc(C)c(Cl)c(C)c4)c4ccc(Cl)c(-c5c(C)nn(C)c5C)c43)C2=O)c2c1c(C)c(C(N)=O)n2C [Example 411, (R)-7-(7-Chloro-10-(3-(4-chloro-3,5-dimethylphenoxy)propyl)-4-methyl-1-oxo-6-(1,3,5-trimethyl-1H-pyrazol-4-yl)-3,4-dihydropyrazino[1,2-a]indol-2(1H)-yl)-4-methoxy-1,3-dimethyl-1H-indole-2-carboxamide]	5.6
Cc1cc(OCCCc2c3n(c4c(-c5c(C)nn(C)c5C)c(Cl)ccc24)CCCN(c2cc(C(=O)O)c4c(c2)nnn4C)C3=O)cc(C)c1Cl [Example 5, 6-[8-Chloro-11-[3-(4-chloro-3,5-dimethyl-phenoxy)propyl]-1-oxo-7-(1,3,5-trimethylpyrazol-4-yl)-4,5-dihydro-3H-[1,4]diazepino[1,2-a]indol-2-yl]-3-methyl-benzotriazole-4-carboxylic acid]	2.7
Cc1cc(OCCCc2c3n(c4c(-c5c(C)nn(C)c5C)c(Cl)ccc24)[C@H](C)CN(c2ccc(OCC4CCN(C)C4)c4c2cc(C(=O)O)n4C)C3=O)cc(C)c1Cl (some centres unmarked) [Example 319, 4-((M, R)-7-Chloro-10-(3-(4-chloro-3,5-dimethylphenoxy)propyl)-4-methyl-1-oxo-6-(1,3,5-trimethyl-1H-pyrazol-4-yl)-3,4-dihydropyrazino[1,2-a]indol-2(1H)-yl)-1-methyl-7-((1-methylpyrrolidin-3-yl)methoxy)-1H-indole-2-carboxylic acid]	3.2
Cc1cc(OCCCc2c(C(=O)N(C)c3ccc(C(=O)O)cc3)n(CCN3CCOCC3)c3c(-c4c(C)nn(C)c4C)c(Cl)ccc23)cc(C)c1Cl [Example 731, 4-[[6-Chloro-3-[3-(4-chloro-3,5-dimethyl-phenoxy)propyl]-1-(2-morpholinoethyl)-7-(1,3,5-trimethylpyrazol-4-yl)indole-2-carbonyl]-methyl-amino]benzoic acid]	> 200
Cc1cc(CCCCc2c(C(=O)N3CCN(c4ccnc(C(=O)O)c4)CC3)[nH]c3c(-c4c(C)nn(C)c4C)c(Cl)ccc23)cc(C)c1Cl [Example 738, 4-(4-(6-Chloro-3-(4-(4-chloro-3,5-dimethylphenyl)butyl)-7-(1,3,5-trimethyl-1H-pyrazol-4-yl)-1H-indole-2-carbonyl)piperazin-1-yl)picolinic acid]	200
Cc1cc(OCCCc2c3n(c4c(-c5c(C)nn(C)c5C)c(Cl)ccc24)[C@H](C)CN(c2cn(C)c4ccc(-c5nnc(-c6ccccc6)o5)cc24)C3=O)cc(C)c1Cl [Example 421, (R)-7-chloro-10-(3-(4-chloro-3,5-dimethylphenoxy)propyl)-4-methyl-2-(1-methyl-5-(5-phenyl-1,3,4-oxadiazol-2-yl)-1H-indol-3-yl)-6-(1,3,5-trimethyl-1H-pyrazol-4-yl)-3,4-dihydropyrazino[1,2-a]indol-1(2H)-one]	3.4
